Values quoted from earlier work as cited in US9969730B2, “Stable SNS-595 compositions and methods of preparation” (Sunesis Pharmaceuticals, Inc., priority 2009, dated 2018).

Tests used:
[1] = system: various cancer cell lines
xenografts = details: in vivo
[2] = system: acute myeloid leukemia and ovarian cancer; details: human cancer patients

SMILES: CN[C@H]1CN(c2ccc3c(=O)c(C(=O)O)cn(-c4nccs4)c3n2)C[C@@H]1OC [SNS-595, (+)-1,4-dihydro-7-[(3S,4S)-3-methoxy-4-methylamino-1-pyrrolidinyl]-4-oxo-1-(2-thiazolyl)-1,8-naphthyridine-3-carboxylic acid]
- preclinical activity against various cancer cell lines [1]: preclinical activity
- preclinical activity against xenografts (xenografts): preclinical activity
- clinical activity in the treatment of acute myeloid leukemia and ovarian cancer [2]: clinical activity
